Strand notation (5' to 3'): a small letter for the sugar, then the base; units joined by * are phosphorothioate-linked, units joined directly phosphodiester-linked; [ ] holds rarer units or linkages, { } end groups; capitals alone tell only the bases. d = 2'-deoxy (DNA)
Legend:
[1] = tested on: HBV genomes in the supernatants from HepG2.2.15 cells; assay: Kinetic PCR HBV anti-viral assay on supernatants from HepG2.2.15 cells; assay type: cell-based, hepatitis B virus; settings: copy number of HBV genomes in HepG2.2.15 supernatants, day 10
Procedure: In addition to Southern hybridizations, kinetic PCR was performed to assay the supernatants from the HepG2.2.15 cells. This procedure was carried out as described by Higuchi et al. (Biotechnol. (1993) 11:1026–1030). All PCRs were carried out with two sets of external controls which consisted of a dilution series of a known concentration of plasmid DNA that contained the HBV core gene amplified with the same primer set. These controls generated a standard curve that was used to calculate the copy number of HBV genomes in the supernatants from cells exposed to the various dilutions of compound.
The anti-viral assay was performed using HepG 2.2.15 cells (Sells et al. ([…]) Proc. Natl. Acad. Sci. (USA) 84:1005–1009) seeded at a density of 1×10^5 per well in 24 well plates. The cells were grown to confluence and allowed to stabilize for 2–3 days in RPMI media (supplemented with 10% fetal calf serum (FCS), 2 mM glutamine and penstrep (Life Technologies Ltd., Paisley, Scotland) prior to the addition of the oligonucleotide (defined as day 0). Six dilutions (10, 5, 1, 0.5, 0.1, and 0 μM) were set up in duplicate for each of the antisense oligonucleotides. In each assay run, the nucleoside analog, β-L-(2R,5S)-1,3 oxathiolanyl cytosine (3TC) (Glaxo, Greenford, U.K.) was included as positive control at 0.5, 0.1, 0.075, 0.05, and 0.01 and 0 μM in duplicate. Oligonucleotide was added to 1 ml of RPMI media (supplemented with 3% FCS, 2 mM glutamine and penstrep) at each of the indicated dilutions. At days 2, 4 and 7, the old media was removed and replaced with fresh media containing compound. At day 10, the supernatants were harvested, clarified by low speed centrifugation, prior to the addition of Triton X100 (Sigma, St. Louis, Mo.) and tri-n-butyl phosphate to give a final concentration of 1%. The samples were then heated to 70° C. for 20 minutes to disrupt the viral particles.
Following this treatment, the viral particles were subject to analysis by kinetic PCR. The primers RJ407 (SEQ ID NO:51) and RJ431 (SEQ ID NO:52) were used to detect a 205 bp fragment of the core gene. Kinetic PCR was performed essentially as described by Higuchi et al. (Biotechnol. (1993) 11:1026–1030). Briefly, the PCR reactions were set up under standard conditions except that ethidium bromide was included at a concentration of 4 μg/ml. […] A kinetic PCR analysis was performed by plotting the average intensity of fluorescence from each PCR sample after each annealing/extension cycle against the cycle number. The original template concentration can be calculated by utilizing a standard fluorescence curve generated by templates of known concentration.

[2] = tested on: In vitro transcribed HBV RNA (adw strain); assay: RNase H cleavage assay with contiguous oligodeoxynucleotide phosphorothioates (FIG. 2); assay type: biochemical, hepatitis B virus; settings: end-labelled HBV RNA (adw), regions found with random 20mer library
Procedure: To determine whether an oligonucleotide of the invention is capable of successfully hybridizing to its target, an RNase H assay was performed (Frank et al. (1993) Proc. Int. Conf. Nucleic Acid Med. Applns. 1:4.14(abstract)). This assay is useful when a region of at least four contiguous nucleotides of the oligonucleotide is DNA and the target is RNA. Hybridization of the DNA portion of the oligonucleotide to the RNA target is identified by cleavage at that site by RNase H.
In vitro transcribed HBV RNA (adw strain) was probed for sites accessible to oligonucleotide hybridization using a randomized library of 20 base oligodeoxynucleotides (approximately […]). Hybridization to the RNA was detected by RNase H cleavage of the end-labelled transcript. Three regions were identified by this assay. One region was in the 5′ untranslated region, between 113 and 70 bases upstream from the core initiator, and two regions were in the coding regionfor core, between 78 and 174 bases downstream from the core initiator. Contiguous oligodeoxynucleotide phosphorothioates were prepared against these regions and their ability to activate RNase H cleavage of the transcript measured.
The plasmid pHBVE+was generated by subcloning a StuI, BamHI fragment from the plasmid pAM6 (ATCC Ac. No. 45020, American Type Culture Collection, Rockville, Md.), representing HBV subtype adw nt 1701-nt 34 (GenBank accession # V00866) (Ono et al. (1983) Nucleic Acids Res. 11:1747–1757), into pBluescript II SK(+) (Stratagene, La Jolla, Calif.). […]
In 9 μl 1× RNase H buffer (40 mM Tris-HCl pH 7.4, 4 mM MgCl2, 1 mM DTT), 20–100 nM labelled RNA and 100 nM oligonucleotides were preincubated for 15 min at 37° C. […] The reactions were quenched and analyzed as described above.
Quantitation of the cleavage products was performed using software supplied with the Phosphorimager (Molecular Dynamics, Sunnyvale, Calif., or Bio-Rad Laboratories, Hercules, Calif.). “Counts” were determined by drawing a box around the band of interest and subtracting the background determined with a box drawn nearby. […]

[3] = tested on: HBV subtype ayw polymerase gene-luciferase fusion construct; assay: Firefly luciferase reporter gene assay in stably transfected HepG2 cells (pol-luciferase fusion); assay type: cell-based; settings: versus random 20mer PS negative control, FIG. 9
Procedure: Oligonucleotides targeted to the polymerase translation initiation region were also tested in mammalian cells using a firefly luciferase reporter gene assay. The 35 nucleotide region spanning the translation start site of the HBV ayw polymerase gene from nt 2294–2328 was cloned 5′ to, and in frame with, the entire open reading frame of the firefly luciferase gene in the plasmid pGLori, to produce the plasmid pGLpol (FIG. 10). Transcription of this pol-luciferase gene fusion was placed under the control of the cytomegalovirus early gene promoter. Expression of the pol-luciferase fusion in mammalian cells was quantified in a luminometer by addition of luciferin substrate and ATP cofactor to cell lysates. In all cellular antisense assays, a random sequence 20mer phosphorothioate oligonucleotide (random 20mer PS) was used as a negative control. […]
Stably transfected HepG2 cells were seeded into 96 well plates. […] Cells were washed twice with Dulbecco's phosphate-buffered saline (PBS) and lysed in 50 μl cell lysis buffer (Analytical Luminescence Laboratory, San Diego, Calif.). Luciferase activity was measured in 20 μl lysate using Analytical Luminescence Laboratory substrates in a MicroLumat LB 96 P luminometer (EG&G Berthold, Nashua, N.H.).

Sequence	IC50 [1] [nM]	ability to activate RNase H cleavage of the transcript [2]	antisense activity on luciferase expression [3]
GAAAAAGTTGCATGGTGCTG (antisense dG*dA*dA*dA*dA*dA*dG*dT*dT*dG*dC*dA*dT*dG*dG*dT*dG*dC*dT*dG) [HBV44]	700	single peaks of activity	
GAGGCGGTGTCTAGGAGATC (antisense dG*dA*dG*dG*dC*dG*dG*dT*dG*dT*dC*dT*dA*dG*dG*dA*dG*dA*dT*dC) [HBV57]		single peaks of activity	
GATAGGGGCATTTGGTGGTC (phosphorothioate, further chemistry not given here) [HBVpol-2]	3700		had sequence-specific antisense activity
GCAGTATGGTGAGGTGAGCA (antisense dG*dC*dA*dG*dT*dA*dT*dG*dG*dT*dG*dA*dG*dG*dT*dG*dA*dG*dC*dA) [HBV41]		single peaks of activity	
GGCATTTGGTGGTCTATAAG (antisense dG*dG*dC*dA*dT*dT*dT*dG*dG*dT*dG*dG*dT*dC*dT*dA*dT*dA*dA*dG) [HBVpol-1]			had sequence-specific antisense activity
